From patent publication US6875761B2 (Eisai Co., Ltd., priority 1997, dated 2005)
Structures can show the parent of a compound that is named as a salt.

Columns and labels:
serotonin 1A receptor = target: T1, serotonin 1A receptor (Rattus norvegicus, UniProt P19327); test: Binding test on [3H] 8-hydroxy-dipropylaminotetralin, hippocampus receptor fraction; parameters: species or system SD rats; conditions: rat hippocampus receptor fraction, 0.5 nM [3H] 8-OH-DPAT, room temperature 30 min; read-out: 5HT1
T1 construct: To the receptor fraction of the hippocampus were added a test compound and 0.5 nM of [^3H]; 8-hydroxy-dipropylaminotetralin; from tissue; host or cells: rat hippocampus membrane fraction
T1 sequence (P19327 1-422): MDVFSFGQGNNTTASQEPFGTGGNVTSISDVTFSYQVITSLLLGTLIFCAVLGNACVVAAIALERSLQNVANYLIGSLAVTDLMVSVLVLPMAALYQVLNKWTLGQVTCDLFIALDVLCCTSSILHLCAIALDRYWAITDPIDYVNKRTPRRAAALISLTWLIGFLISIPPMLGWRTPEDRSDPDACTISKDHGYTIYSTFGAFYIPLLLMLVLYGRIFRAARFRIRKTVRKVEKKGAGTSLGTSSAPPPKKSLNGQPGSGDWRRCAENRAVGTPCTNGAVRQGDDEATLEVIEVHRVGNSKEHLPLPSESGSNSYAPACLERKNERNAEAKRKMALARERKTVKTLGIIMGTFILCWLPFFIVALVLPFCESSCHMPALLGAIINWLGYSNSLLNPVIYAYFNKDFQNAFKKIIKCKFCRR

serotonin 2 receptor = target: T2, serotonin 2 receptor (Rattus norvegicus, UniProt P14842); test: Binding test on [3H] ketanserin, cerebral cortex receptor fraction; parameters: species or system SD rats; conditions: 0.3 nM [3H] ketanserin, 37° C. 15 min, read-out: 5HT2
T2 construct: To the receptor fraction of the cerebral cortex were added a test compound and 0.3 nM of [^3H] ketanserin; from tissue; host or cells: rat cerebral cortex membrane fraction
T2 sequence (P14842 whole entry): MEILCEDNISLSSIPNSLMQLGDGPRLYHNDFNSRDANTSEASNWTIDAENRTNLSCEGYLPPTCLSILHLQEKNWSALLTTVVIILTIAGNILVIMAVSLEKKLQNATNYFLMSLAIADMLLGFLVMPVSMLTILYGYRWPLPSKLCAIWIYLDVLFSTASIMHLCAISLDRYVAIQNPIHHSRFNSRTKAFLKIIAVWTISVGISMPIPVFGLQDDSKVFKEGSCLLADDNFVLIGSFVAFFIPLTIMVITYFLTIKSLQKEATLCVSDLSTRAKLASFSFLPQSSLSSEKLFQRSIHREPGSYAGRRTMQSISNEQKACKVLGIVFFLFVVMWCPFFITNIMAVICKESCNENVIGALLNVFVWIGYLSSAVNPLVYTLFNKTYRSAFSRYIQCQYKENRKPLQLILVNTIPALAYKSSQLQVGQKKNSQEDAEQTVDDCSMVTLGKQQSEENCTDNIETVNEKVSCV

| Ki (serotonin 1A receptor) | Ki (serotonin 2 receptor) | SMILES |
| --- | --- | --- |
| 13.5 nM | 5.5 nM | CCN1CCN(c2nc(-c3ccc(CCC(C)(C)O)nc3)cc3ccccc23)CC1 [Example 138, 1-(1-Ethylpiperazin-4-yl)-3-[2-(3-Hydroxy-3-Methylbutyl)Pyridin-5-yl]Isoquinoline Oxalate] |
| 22.1 nM | 36.7 nM | CCN1CCN(c2nc(-c3cncc(CCCOC)c3)cc3ccccc23)CC1 [Example 140, 1-(1-Ethylpiperazin-4-yl)-3-[3-(3-Methoxypropyl)Pyridin-5-yl]Isoquinoline Oxalate] |
| 2.9 nM | 20.4 nM | CCN1CCN(c2nc(-c3ccc(CCCOC)cn3)cc3ccccc23)CC1 [Example 141, 1-(1-Ethylpiperazin-4-yl)-3-[5-(3-Methoxypropyl)Pyridin-2-yl]Isoquinoline Oxalate] |
| 3.3 nM | 15.2 nM | CCOCCCc1ccc(-c2cc3ccccc3c(N3CCN(CC)CC3)n2)cn1 [Example 142, 1-(1-Ethylpiperazin-4-yl)-3-[2-(3-Ethoxypropyl)Pyridin-5-yl]Isoquinoline Oxalate] |
| 2.2 nM | 17.4 nM | CCN1CCN(c2nc(-c3ccc(CCCOC(C)C)nc3)cc3ccccc23)CC1 [Example 143, 1-(1-Ethylpiperazin-4-yl)-3-[2-[3-(2-Propoxy)Propyl]Pyridin-5-yl]Isoquinoline Oxalate] |
| 4.8 nM | 12.4 nM | CCN1CCN(c2nc(-c3ccc(CCC(C)OC)nc3)cc3ccccc23)CC1 (centres unmarked) [Example 144, 1-(1-Ethylpiperazin-4-yl)-3-[2-(3-Methoxybutyl)Pyridin-5-yl]Isoquinoline Oxalate] |
| 6.5 nM | 1.7 nM | CCN1CCN(c2nc(-c3ccc(N4CCOCC4)nc3)cc3ccccc23)CC1 [Example 147, 1-(4-ethylpiperazin-1-yl)-3-[2-(morpholin-4-yl)pyridin-5-yl]isoquinoline trihydrochloride] |
| 6.33 nM | 7.85 nM | CCN1CCN(c2nc(-c3ccc(N4CCOCC4)cn3)cc3ccccc23)CC1 [Example 148, 1-(4-ethylpiperazin-1-yl)-3-[5-(morpholin-4-yl)pyridin-2-yl]isoquinoline trihydrochloride] |
| 37.2 nM | 21.8 nM | CCN1CCN(c2nc(-c3ccc(N4C[C@@H](C)O[C@@H](C)C4)nc3)cc3ccccc23)CC1 [Example 149, 3-[2-(2,6-dimethylmorpholin-4-yl)pyridin-5-yl]-1-(4-ethylpiperazin-1-yl)isoquinoline trihydrochloride] |
| 10.7 nM | 0.8 nM | CCN1CCN(c2nc(-c3ccc(N4CCSCC4)nc3)cc3ccccc23)CC1 [Example 150, 1-(4-ethylpiperazin-1-yl)-3-[2-(thiomorpholin-4-yl)pyridin-5-yl]isoquinoline trihydrochloride] |
| 6.1 nM | 12.4 nM | CCN1CCN(c2nc(-c3ccc(N4CCC(O)CC4)nc3)cc3ccccc23)CC1 [Example 152, 1-(4-ethylpiperazin-1-yl)-3-[2-(4-hydroxypiperidin-1-yl)pyridin-5-yl]isoquinoline trihydrochloride] |
| 12.9 nM | 1.5 nM | CCN1CCN(c2nc(-c3ccc(N4CCC(OC)CC4)nc3)cc3ccccc23)CC1 [Example 153, 1-(4-ethylpiperazin-1-yl)-3-[2-(4-methoxypiperidin-1-yl)pyridin-5-yl]isoquinoline trihydrochloride] |
| 1.6 nM | 8.8 nM | CCN1CCN(c2nc(-c3ccc(N4CCC(CO)CC4)nc3)cc3ccccc23)CC1 [Example 154, 1-(4-ethylpiperazin-1-yl)-3-[2-(4-hydroxymethylpiperidin-1-yl)pyridin-5-yl]isoquinoline trihydrochloride] |
| 20 nM | 4.34 nM | CCN1CCN(c2nc(-c3ccc(C4=CCOCC4)nc3)cc3ccccc23)CC1 [Example 155, 3-[2-(5,6-dihydro-2H-pyran-4-yl)pyridin-5-yl]-1-(4-ethylpiperazin-1-yl)isoquinoline oxalate] |
| 10.9 nM | 0.01 nM | CCN1CCN(c2nc(-c3ccc(C4CCOCC4)nc3)cc3ccccc23)CC1 [Example 156, 3-[2-(tetrahydropyran-4-yl)pyridin-5-yl]-1-(4-ethylpiperazin-1-yl)isoquinoline oxalate] |
| 29.7 nM | 4.9 nM | CCN1CCN(c2nc(-c3ccc(OCCCc4cccnc4)cc3)cc3ccccc23)CC1 [Example 157, 3-[4-[3-(3-pyridyl)propoxy]phenyl]-1-(4-ethylpiperazin-1-yl)isoquinoline hydrochloride] |
| 10.7 nM | 23.8 nM | CCN1CCN(c2nc(-c3csc(CO)c3)cc3ccccc23)CC1 [Example 161, 1-(1-ethylpiperazin-4-yl)-3-(2-hydroxymethylthiophen-4-yl)isoquinoline dihydrochloride] |
| 10.7 nM | 84.7 nM | CCN1CCN(c2nc(-c3ccc(CO)s3)cc3ccccc23)CC1 [Example 162, 1-(1-ethylpiperazin-4-yl)-3-(2-hydroxymethylthiophen-5-yl)isoquinoline dihydrochloride] |
| 25.1 nM | 19.2 nM | CCN1CCN(c2nc(-c3ccc(CCO)s3)cc3ccccc23)CC1 [Example 163, 1-(1-ethylpiperazin-4-yl)-3-[2-(2-hydroxyethyl)thiophen-5-yl]isoquinoline dihydrochloride] |
| 9.38 nM | 11.9 nM | CCC(O)c1cc(-c2cc3ccccc3c(N3CCN(CC)CC3)n2)cs1 (centres unmarked) [Example 164, 1-(1-ethylpiperazin-4-yl)-3-[2-(1-hydroxypropyl)thiophen-4-yl]isoquinoline hydrochloride] |
| 32.6 nM | 25.4 nM | CCC(O)c1ccc(-c2cc3ccccc3c(N3CCN(CC)CC3)n2)s1 (centres unmarked) [Example 165, 1-(1-Ethylpiperazin-4-yl)-3-[2-(1-hydroxypropyl)thiophen-5-yl)isoquinoline hydrochloride] |
| 3 nM | 25.4 nM | CCC(O)c1ncc(-c2cc3ccccc3c(N3CCN(CC)CC3)n2)s1 (centres unmarked) [Example 170, 1-(1-ethylpiperazin-4-yl)-3-[(1-hydroxypropyl)thiazol-5-yl]isoquinoline dihydrochloride] |
| 4.7 nM | 21.9 nM | CCN1CCN(c2nc(-c3cnc(CCCO)s3)cc3ccccc23)CC1 [Example 171, 1-(1-ethylpiperazin-4-yl)-3-[2-(3-hydroxypropyl)thiazol-5-yl]isoquinoline oxalate] |
| 4.7 nM | 36.2 nM | CCN1CCN(c2nc(-c3cnc(CCCOC)s3)cc3ccccc23)CC1 [Example 172, 1-(1-ethylpiperazin-4-yl)-3-[2-(3-methoxypropyl)thiazol-5-yl]isoquinoline oxalate] |
| 155 nM | 12.4 nM | CCN1CCN(c2nc(-c3ccc(C4=CCOCC4)s3)cc3ccccc23)CC1 [Example 176, 3-[2-(5,6-Dihydro-2H-Pyran-4-Yl)Thiophen-5-Yl]-1-[4-Ethylpiperazin-1-Yl)Isoquinoline Hydrochloride] |
| 45 nM | 0.5 nM | CCN1CCN(c2nc(C#Cc3ccccc3)cc3ccccc23)CC1 [Example 177, 1-(1-Ethylpiperazin-4-Yl)-3-(Phenylethynyl)Isoquinoline Dihydrochloride] |

| SMILES | Ki (serotonin 1A receptor) | Ki (serotonin 2 receptor) |
| --- | --- | --- |
| CCN1CCN(c2nc(-c3ccc(CCCO)nc3)cc3ccccc23)CC1 [Example 135, 1-(1-Ethylpiperazin-4-yl)-3-[2-(3-Hydroxypropyl)Pyridin-5-yl]Isoquinoline] | 3.4 nM | 18.9 nM |
| CCN1CCN(c2nc(-c3ccc(CCC(C)O)nc3)cc3ccccc23)CC1 (centres unmarked) [Example 136, 1-(1-Ethylpiperazin-4-yl)-3-[2-(3-Hydroxybutyl)Pyridin-5-yl]Isoquinoline] | 3.7 nM | 11.6 nM |
| CCN1CCN(c2nc(-c3ccc(CCCCO)nc3)cc3ccccc23)CC1 [Example 137, 1-(1-Ethylpiperazin-4-yl)-3-[2-(4-Hydroxybutyl)Pyridin-5-yl]Isoquinoline] | 7.2 nM | 32.5 nM |
| CCC#Cc1ccc(-c2cc3ccccc3c(N3CCN(CC)CC3)n2)cn1 [Example 146, 1-(1-ethylpiperazin-4-yl)-3-[2-(1-butyn-1-yl)pyridin-5-yl]isoquinoline] | 170 nM | 2.9 nM |
| CCN1CCN(c2nc(-c3ccc(N4CC[S+]([O-])CC4)nc3)cc3ccccc23)CC1 [Example 151, 1-(4-ethylpiperazin-1-yl)-3-[2-(S-oxythiomorpholin-4-yl)pyridin-5-yl]isoquinoline trihydrochloride] | 7 nM | 79.2 nM |
| CCN1CCN(c2nc(N3CCN(c4ccccc4)CC3)cc3ccccc23)CC1 [Example 158, 1-(1-ethylpiperazin-4-yl)-3-(1-phenylpiperazin-4-yl)isoquinoline] | 0.41 nM | 1.08 nM |
| CCN1CCN(c2nc(N3CCN(c4ccccn4)CC3)cc3ccccc23)CC1 [Example 159, 1-(1-ethylpiperazin-4-yl)-3-[1-(2-pyridyl)piperazin-4-yl]isoquinoline] | 0.65 nM | 13.2 nM |
| CCCC(=O)Nc1ncc(-c2cc3ccccc3c(N3CCN(CC)CC3)n2)cn1 [Example 174, 3-(2-Propylcarbonylaminopyrimidin-5-Yl)-1-(4-Ethylpiperazin-1-Yl)Isoquinoline Hydrochlroide] | 29.1 nM | 7.3 nM |
